{"source": "patent US10596150B2", "about": "“Antifungal agents” (F2G LIMITED, priority 2014, dated 2020)", "key": {"A. flavus": {"system": "A. flavus", "test": "Minimum Inhibitory Concentration (MIC), RPMI medium", "type": "cell-based", "settings": "Aspergillus flavus, >80% growth inhibition", "protocol": "(§1) Between 1 and 5 mgs of the compound were accurately weighed out into a sterile Eppendorf tube. The compound was dissolved in DMSO to give a solution containing 5 mg/mL. Tubes were stored at −20° C. until required.\n(§2) On the day of testing thawed solutions were vortex mixed to ensure homogeneity. 30 μL of solution was removed and added to 570 μL of sterile water in a separate sterile Eppendorf. The thoroughly mixed solution was used to prepare a series of doubling dilutions in water, in a deep well plate. Thirteen replicate plates were prepared using a Minitrak by aspirating 20 μL from each well into eleven clear polystyrene 96 well plates.\n(§3) Spores of Aspergillus and Scedosporium were harvested from cultures grown on Sabarauds agar for 5 days, and resuspended in PBS/Tween 80 to approx 1×10^7 cfu/mL. Each organism suspension was diluted in RPMI medium, containing 2% glucose and 0.135 M MOPS buffer (pH 7.0) to 0.5-2×10^4 cfu/mL. 80 μL of an organism suspension was added to each well of the plate containing drug dilutions.\n(§4) This produced MIC plates with a drug range 50-0.05 mg/L and organism inocula of 1-2×10^4 cfu/mL. All plates were incubated for 24-48 h at 35° C. Growth was assessed by monitoring the optical density at 485 nm for each well. The MIC of a compound is the lowest drug concentration that inhibits growth of an organism by >80% compared with a drug free control."}, "A. fumigatus 210": {"system": "A. fumigatus 210", "test": "Minimum Inhibitory Concentration (MIC), RPMI medium", "type": "cell-based", "settings": "Aspergillus fumigatus, >80% growth inhibition", "protocol": "as §1, §2, §3, §4"}, "A. fumigatus": {"system": "A. fumigatus", "test": "Minimum Inhibitory Concentration (MIC), RPMI medium", "type": "cell-based", "settings": "Aspergillus fumigatus, >80% growth inhibition", "protocol": "as §1, §2, §3, §4"}, "A. niger": {"system": "A. niger", "test": "Minimum Inhibitory Concentration (MIC), RPMI medium", "type": "cell-based", "settings": "Aspergillus niger, >80% growth inhibition", "protocol": "as §1, §2, §3, §4"}, "A. terreus 49": {"system": "A. terreus 49", "test": "Minimum Inhibitory Concentration (MIC), RPMI medium", "type": "cell-based", "settings": "Aspergillus terreus, >80% growth inhibition", "protocol": "as §1, §2, §3, §4"}, "A. terreus": {"system": "A. terreus", "test": "Minimum Inhibitory Concentration (MIC), RPMI medium", "type": "cell-based", "settings": "Aspergillus terreus, >80% growth inhibition", "protocol": "as §1, §2, §3, §4"}, "[1]": {"system": "Scedosporium apiospermum 13486", "test": "Minimum Inhibitory Concentration (MIC), RPMI medium", "type": "cell-based", "protocol": "as §1, §2, §3, §4"}, "[2]": {"system": "Scedosporium apiospermum 15848", "test": "Minimum Inhibitory Concentration (MIC), RPMI medium", "type": "cell-based", "protocol": "as §1, §2, §3, §4"}, "[3]": {"system": "Scedosporium apiospermum 451", "test": "Minimum Inhibitory Concentration (MIC), RPMI medium", "type": "cell-based", "protocol": "as §1, §2, §3, §4"}, "[4]": {"system": "Scedosporium apiospermum 4883", "test": "Minimum Inhibitory Concentration (MIC), RPMI medium", "type": "cell-based", "protocol": "as §1, §2, §3, §4"}, "[5]": {"system": "Scedosporium apiospermum 7935", "test": "Minimum Inhibitory Concentration (MIC), RPMI medium", "type": "cell-based", "protocol": "as §1, §2, §3, §4"}, "[6]": {"system": "Scedosporium apiospermum 8353", "test": "Minimum Inhibitory Concentration (MIC), RPMI medium", "type": "cell-based", "protocol": "as §1, §2, §3, §4"}, "[7]": {"system": "Scedosporium prolificans 18389", "test": "Minimum Inhibitory Concentration (MIC), RPMI medium", "type": "cell-based", "settings": "Lomentospora prolificans", "protocol": "as §1, §2, §3, §4"}, "[8]": {"system": "Scedosporium prolificans 206", "test": "Minimum Inhibitory Concentration (MIC), RPMI medium", "type": "cell-based", "settings": "Lomentospora prolificans", "protocol": "as §1, §2, §3, §4"}, "[9]": {"system": "Scedosporium prolificans 6322", "test": "Minimum Inhibitory Concentration (MIC), RPMI medium", "type": "cell-based", "settings": "Lomentospora prolificans", "protocol": "as §1, §2, §3, §4"}, "[10]": {"system": "Scedosporium species 15849", "test": "Minimum Inhibitory Concentration (MIC), RPMI medium", "type": "cell-based", "protocol": "as §1, §2, §3, §4"}, "[11]": {"system": "A. fumigatus strain A1163", "test": "Murine survival model of Aspergillus fumigatus infection (survival, kidney burden, serum galactomannan)", "type": "in vivo, male CD-1 mice", "settings": "positive control; 10 mg/kg b.i.d. by the oral route; A. fumigatus infected mice", "protocol": "Murine survival models are frequently used to assess the efficacy of antifungal drugs against Aspergillus. The models used in the development of Example 1 were carried out at Euprotec Ltd (Manchester) a contract research organisation (CRO) with extensive experience in the evaluation of antifungal drugs. The typical model involves the use of groups of 6-10 male CD-1 mice per treatment group. Mice are immunosuppressed with 200 mg/kg cyclophosphamide injected intraperitoneal 3 days prior to infection. A. fumigatus strain A1163 is cultured on Sabourauds agar for 4-6 days at 35° C. Spores are harvested in phosphate buffered saline (PBS)/Tween, the suspension diluted and the number of spores enumerated. Mice are then infected with an intravenous injection of A. fumigatus spores given through the lateral tail vein. The typical inoculum is 6-8×10^4 cfu/mouse and is sufficient to kill all untreated animals by Day 4-6. The animals die of IA and Aspergillus organisms can be detected in many body tissues. Treatment is typically commenced soon after infection but delays of up to 24 h following infection produce a more challenging model. Treatment is continued for 7-9 days. Treatment may be up to 3 times daily using an oral dosing. Following cessation of treatment, animals are observed for 1-2 days, and then sacrificed. Relevant controls treated with oral drug-free vehicle are always included; ideally there should be no survivors in this group. A positive control consisting of an antifungal drug such as Reference Example 10 was used. This compound consistently produces 100% survival at doses of 10 mg/kg b.i.d. dosed by the oral route. Most models are run as temporary neutropenic models where only a single dose of cyclophosphamide is administered.\nThe fungal burden in the kidney can be determined on animals surviving to the end of the study and this can help provide efficacy discrimination between groups where all animals survive. Tissue burdens are carried out by removing the kidneys from animals when they are culled at the end of the study. These are homogenised in saline and plated onto Sabourauds agar and incubated at 35° C. for 72 h. Aspergillus colonies are counted and the amount of aspergillus per gram of kidney calculated. The results are expressed as colony forming units per gramme (cfu/g). […] However, data from studies where tissue burden has been carried out on untreated animals at day 4 or 5 has shown that tissue burdens are typically in excess of 20,000 cfu/g and may exceed 100,000 cfu/g in some studies.\nIn some of the survival studies described below serum samples were collected from surviving mice at the end of the study or on mice that succumbed to infection during the study to examine the effect of Example 1 on galactomannan levels and to see if there was a relationship between galactomannan levels and survival.\nThe galactomannan assays were carried out on serum samples that had been stored frozen at −80° C. Samples were thawed and assayed using a Platelia Aspergillus Ag enzyme-linked immunosorbent assay (ELISA) kit (Biorad). The assay was modified slightly to take into account the small sample volumes available from mice. If assay results were high a repeat test was carried out on a sample diluted in normal mouse serum. The amount of galactomannan in a sample is presented as a galactomannan index. The mean galactomannan index for each group was calculated and is presented graphically against each treatment regimen.\nThe survival study carried assessed the dose response of Example 1. Example 1 was dosed orally to A. fumigatus infected mice at 2 dose levels 10 mg/kg b.i.d. and 3 mg/kg b.i.d. Therapy was initiated at 24 h post infection and therapy continued for 8 days. At the end of the study kidney burdens were measured on surviving animals. In addition serum samples were taken at the end of the study from all surviving animals and from each animal that died during the course of the study. […]"}, "L. prolificans FMR 3569": {"system": "L. prolificans FMR 3569", "test": "Lomentospora prolificans FMR 3569 disseminated infection model (survival, tissue burden)", "type": "in vivo, Male OF-1 mice", "settings": "VRC 25 mg/kg p.o. QD; Example 1 20 mg/k p.o. BID; from day 1 after challenge for 9 days", "procedure": "L. prolificans (also known as Scedosporium prolificans or S. prolificans) was grown on Potato Dextrose Agar (PDA) for 5 days at 35° C. On the day of infection, cultures were flooded with sterile saline and filtered through sterile gauze to remove clumps of conidia and hyphae. The resulting suspensions were adjusted by haemocytometer count and by serial plating to confirm viability.\nMale OF-1 mice with a mean weight of 30 g were used in the experiment. Mice were housed in standard boxes with food and water ad libitum.\nMice were rendered neutropenic two days prior to infection by an intraperitoneal (i.p.) injection of 200 mg/kg of cyclophosphamide, and once every 5 days thereafter (Clemons et al, 2005).\nMice were challenged with 5×10^4 CFU/animal of L. prolificans FMR 3569, in a volume of 0.2 ml of sterile saline into the lateral tail vein.\nTreatments consisted of (a) voriconazole (VRC) (Vfend; Pfizer S. A., Madrid, Spain) at 25 mg/kg p.o, by gavage QD; (b) Example 1 at 20 mg/k, p.o, by gavage BID; and (c) no treatment. From 3 days before infection, mice that received VRC were given grapefruit juice instead of water (Sugar & Liu, 2001). All treatments began 1 day after challenge, and the therapy lasted for 9 days. Controls received no treatment.\nFor survival studies groups of 10 mice were randomly established for each therapy. Mortality was recorded daily until the end of the experiment. […]"}}, "data": [{"smiles": "Cc1cc(C)nc(N2CCN(c3ccc(NC(=O)C(=O)c4c(-c5ccccc5)cc(C)n4C)cc3)CC2)c1", "note": "[Ref. Example 10, 2-(1,5-Dimethyl-3-phenyl-1H-pyrrol-2-yl)-N-{4-[4-(4,6-dimethyl-pyridin-2-yl)-piperazin-1-yl]-phenyl}-2-oxo-acetamide]", "values": [{"measurement": "MIC", "setting": "A. flavus", "value": "0.04 to 0.06", "unit": "µg/mL"}, {"measurement": "MIC", "setting": "A. fumigatus 210", "value": "0.02 to 0.04", "unit": "µg/mL"}, {"measurement": "MIC", "setting": "A. fumigatus", "value": "0.02 to 0.04", "unit": "µg/mL"}, {"measurement": "MIC", "setting": "A. niger", "value": "> 0.06", "unit": "µg/mL"}, {"measurement": "MIC", "setting": "A. terreus 49", "value": "0.02 to 0.04", "unit": "µg/mL"}, {"measurement": "MIC", "setting": "A. terreus", "value": "0.02 to 0.04", "unit": "µg/mL"}, {"measurement": "MIC Scedosporium apiospermum 13486", "setting": "[1]", "value": "F (a grade of F represents an MIC of greater than 0.06 mg/L)"}, {"measurement": "MIC", "setting": "[1]; Scedosporium apiospermum, 13486", "value": "> 0.06", "unit": "µg/mL"}, {"measurement": "MIC", "setting": "[2]", "value": "> 0.06", "unit": "µg/mL"}, {"measurement": "MIC", "setting": "[3]", "value": "> 0.06", "unit": "µg/mL"}, {"measurement": "MIC", "setting": "[4]", "value": "0.02 to 0.04", "unit": "µg/mL"}, {"measurement": "MIC", "setting": "[5]", "value": "> 0.06", "unit": "µg/mL"}, {"measurement": "MIC", "setting": "[6]", "value": "0.04 to 0.06", "unit": "µg/mL"}, {"measurement": "MIC", "setting": "[7]", "value": "> 0.06", "unit": "µg/mL"}, {"measurement": "MIC", "setting": "[8]", "value": "> 0.06", "unit": "µg/mL"}, {"measurement": "MIC", "setting": "[9]", "value": "0.04 to 0.06", "unit": "µg/mL"}, {"measurement": "MIC", "setting": "[10]", "value": "> 0.06", "unit": "µg/mL"}, {"measurement": "survival", "setting": "[11]", "value": 100, "unit": "%"}]}, {"smiles": "C[C@@H](c1ncncc1F)[C@](O)(Cn1cncn1)c1ccc(F)cc1F", "note": "[VRC, voriconazole]", "values": [{"measurement": "survival rates compared with the control (FIG. 7)", "setting": "L. prolificans FMR 3569", "value": "no significant increase"}]}]}
